Earlier results as cited in patent US20090221688A1, “PHARMACEUTICAL COMPOSITIONS CONTAINING DOCETAXEL AND A DEGRADATION INHIBITOR AND A PROCESS FOR OBTAINING THE SAME” (Quiral Quimica DO Brasil S.A., priority 2006, published 2009).

Target: T1, recombinant human cytochrome P450 1B1 (hCYP1B1) (Homo sapiens, UniProt Q16678)
T1 sequence (Q16678 1-543): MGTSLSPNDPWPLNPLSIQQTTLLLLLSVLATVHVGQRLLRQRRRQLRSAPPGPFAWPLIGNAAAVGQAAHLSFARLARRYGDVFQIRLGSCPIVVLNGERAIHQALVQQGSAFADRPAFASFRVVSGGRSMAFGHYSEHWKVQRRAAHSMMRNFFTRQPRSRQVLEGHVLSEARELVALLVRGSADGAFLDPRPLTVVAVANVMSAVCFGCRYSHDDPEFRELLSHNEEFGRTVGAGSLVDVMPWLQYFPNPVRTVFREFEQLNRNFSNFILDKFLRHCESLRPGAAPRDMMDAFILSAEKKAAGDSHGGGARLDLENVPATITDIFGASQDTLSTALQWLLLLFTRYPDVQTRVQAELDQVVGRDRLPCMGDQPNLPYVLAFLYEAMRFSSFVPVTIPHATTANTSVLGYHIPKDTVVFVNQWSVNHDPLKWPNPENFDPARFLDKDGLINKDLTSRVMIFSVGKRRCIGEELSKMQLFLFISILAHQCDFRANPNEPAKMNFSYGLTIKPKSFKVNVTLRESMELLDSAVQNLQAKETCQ

SMILES | Increase of the activity of hCYP1B1 (concentration of 10 μM) | Metabolism by hCYP1B1 in vitro (EROD activity as a measure)
CC(=O)O[C@@]12COC1C[C@@H](O)[C@@]1(C)C(=O)[C@H](O)C3=C(C)[C@@H](OC(=O)[C@H](O)[C@@H](NC(=O)OC(C)(C)C)c4ccccc4)C[C@@](O)([C@@H](OC(=O)c4ccccc4)[C@@H]12)C3(C)C (stereo partly drawn) [7-epi-docetaxel (II), 4-acetoxy-2-α-benzoyloxy-5β-20-epoxy-1,7-α-10-β-trihydroxy-9-oxo-tax-11-en-13α-il (2R,3S) 3-tert-butoxycarbonylamino-2-hydroxy-3-phenylpropionate ester] | more than 7 fold | –
CC(=O)O[C@@]12COC1C[C@H](O)[C@@]1(C)C(=O)[C@H](O)C3=C(C)[C@@H](OC(=O)[C@H](O)[C@@H](NC(=O)OC(C)(C)C)c4ccccc4)C[C@@](O)([C@@H](OC(=O)c4ccccc4)[C@@H]12)C3(C)C (stereo partly drawn) [docetaxel, 4-acetoxy-2α-benzoyloxy-5β-20-epoxy-1,7-β-10-β-trihydroxy-9-oxo-tax-11-en-13α-il (2R,3S) 3-tert-butoxycarbonylamino-2-hydroxy-3-phenylpropionate ester] | – | not metabolized
